Results reported in paper PMC11725145 (Acta Pharmaceutica Sinica. B, 2024).
Each block holds one compound with its values, some of them ahead of it.

Key:
[1] = Metabolic stability in rat liver microsomes; assay type: in vitro ADME
PDE1 Q421A = PDE1 Q421A (Homo sapiens, UniProt Q14123, Q427A); test: Inhibition of PDE1 mutant by 10a; assay type: biochemical; settings: Q421A vs wild type
PDE1 F392A = PDE1 F392A (Homo sapiens, UniProt Q14123, F398A); test: Inhibition of PDE1 mutant by 10a; assay type: biochemical
PDE1 Y228A = PDE1 Y228A (Homo sapiens, UniProt Q14123, Y227A); test: Inhibition of PDE1 mutant by 10a; assay type: biochemical
PDE1 Y228A, sequence (Q14123 147-531 Y227A): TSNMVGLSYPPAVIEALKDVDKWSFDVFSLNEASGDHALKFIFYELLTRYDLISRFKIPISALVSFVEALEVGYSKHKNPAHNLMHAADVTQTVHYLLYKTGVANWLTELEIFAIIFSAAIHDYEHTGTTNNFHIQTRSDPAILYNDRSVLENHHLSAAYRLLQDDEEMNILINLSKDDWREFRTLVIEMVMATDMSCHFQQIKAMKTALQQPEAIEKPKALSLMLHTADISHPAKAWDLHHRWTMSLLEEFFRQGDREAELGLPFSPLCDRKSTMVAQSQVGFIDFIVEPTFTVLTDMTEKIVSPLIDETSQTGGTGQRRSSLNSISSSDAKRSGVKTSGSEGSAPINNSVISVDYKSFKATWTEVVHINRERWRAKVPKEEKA

PDE1 F392A, sequence (Q14123 147-531 F398A): as the sequence (Q14123 147-531 Y227A) above, with A81Y, F252A counted along it
PDE1 Q421A, sequence (Q14123 147-531 Q427A): as the sequence (Q14123 147-531 Y227A) above, with A81Y, Q281A counted along it

half-life [1]: 13.5 min
Compound: O=C1O/C(=C\c2cc(F)ccc2OCCN2CC[C@@H](F)C2)c2cc(Cc3cccc(F)c3)[nH]c(=O)c21 [11c]

loss of binding affinity (PDE1 Q421A): 8 fold
IC50 (PDE1 F392A): 231 nM
loss of binding affinity (PDE1 F392A; F392A vs wild type): 14 fold
IC50 (PDE1 Y228A): 43 nM
loss of binding affinity (PDE1 Y228A; Y228A vs wild type): ~3 fold
Compound: Cc1cc2c(c(=O)[nH]1)C(=O)O/C2=C\c1cc(F)ccc1OC(C)C [compound 10a]

half-life [1]: 8 min
Compound: Cc1cc2c(c(=O)[nH]1)C(=O)O/C2=C\c1cc(F)ccc1OCCN1CCOCC1 [compound 11a]

half-life [1]: 29.8 min
Compound: O=C1O/C(=C\c2cc(F)ccc2OCCN2CCOCC2)c2cc(Cc3cccc(F)c3)[nH]c(=O)c21 [compound 11b]
